Measured values taken from article PMC8277899, “A novel RyR1-selective inhibitor prevents and rescues sudden death in mouse models of malignant hyperthermia and heat stroke” (Nature Communications, 2021).
Values joined by “and” are separate entries in the source; they are usually repeats but may differ in a detail not shown here. Equal values may be shown once.

Legend:
[1] = test system: FDB muscle cells from R2509C mice; experiment: Ca2+ imaging (Cal520, fura-2) of isolated single FDB cells from R2509C mice, rest, halothane, isoflurane; format: cell-based, mouse
Procedure: WT and mutant mice (R2509C, 8- to 20-week old; R163C, 12- to 16-week old, and G2435R, 12- to 16-week old) were euthanized and flexor digitorum brevis (FDB) muscles were dissected and incubated with 2 mg/mL collagenase (Worthington Biochemical Co., NJ, USA) in the HEPES-Krebs solution containing 2 mg/mL bovine serum albumin for 2–3 h at 37 °C. Following incubation, single cells were separated by gentle trituration in collagenase-free HEPES-Krebs solution. Isolated single FDB cells were seeded on a laminin-coated cover slip of the 35 mm glass-bottom dish or on 96 well plate coated with Cultrex basement membrane matrix (Trevigen, Minneapolis, USA).
Isolated single FDB cells were incubated with 4 µM Cal520-AM (AAT Bioquest, CA, USA) or fura-2-AM (Thermo Fisher Scientific) dye in the HEPES-Krebs solution (140 mM NaCl, 5 mM KCl, 2 mM CaCl2, 1 mM MgCl2, 11 mM glucose, 5 mM HEPES, pH 7.4) for 30 min at 37 °C. The cells were then washed three times with the HEPES-Krebs solution to remove excess dye, and after 30 min of de-esterification, fluorescence images were obtained with a 20X (NA = 0.75) objective lens of an inverted microscope (Nikon TE2000-E Japan) equipped with the sCMOS camera (Zyla, Andor, Belfast, Northern Ireland) using Metamorph v7 (Molecular Devices). Cal520 was excited at 480 ± 15 nm, and fluorescence was measured at wavelengths of 525 ± 25 nm. Fura-2 was excited at alternating lights of 340 ± 6 nm and 380 ± 6 nm, fluorescent light was detected at 510 ± 40 nm, and the ratio of fluorescence excited at 340 nm to that at 380 nm was determined. Imaging experiments were carried out at 26 °C by superfusing a HEPES-Krebs solution with or without halothane or isoflurane. Cpd1 was administered 5 min before measurements. For Mn^2+ quenching experiments, fura-2 was excited at 360 ± 12 nm and emitted fluorescence at 510 ± 40 nm was monitored. The cells were perfused with basal Krebs solution (140 mM NaCl, 5 mM KCl, 1 mM MgCl2, 11 mM glucose, 2 mM CaCl2, 10 mM HEPES, pH 7.4) for 60 s to obtain the baseline signal and then perfused with Mn^2+ quenching Krebs solution (140 mM NaCl, 5 mM KCl, 1 mM MgCl2, 11 mM glucose, 0.5 mM MnCl2, 10 mM HEPES, pH 7.4) for 180 s followed by reperfusion with basal Krebs solution for 120 s.

RyR1 channel = test system: RyR1 channel; design: method as in PMID 31299492; settings: HEK293 cell-based assay; read-out: IC50 for inhibiting the RyR1 channel; cited from earlier work
[2] = test system: soleus muscles from WT mice; experiment: Muscle force in vitro, soleus from WT mice (heat contracture, twitch, tetanus); format: cell-based, mouse; design: stress (stress-frequency relationship): unit not given beside the values
Procedure: Muscle contraction measurement was assessed using intact soleus muscle as follows. WT and R2509C mice (8- to 20-week old) were anesthetized with an i.p. injection of sodium pentobarbital (70 mg/kg body weight) and the soleus muscles were dissected. The isolated muscles were mounted between a force transducer (UL-100; Minebea Co., Tokyo, Japan) and a fixed hook in a chamber containing Krebs solution (140 mmol/L NaCl, 5 mmol/L KCl, 2 mmol/L CaCl2, 1 mmol/L MgCl2, 1 mmol/L NaH2PO4, 25 mmol/L NaHCO3, and 11 mmol/L glucose) bubbled with 95% O2 and 5% CO2 at 25 °C. The muscle force was recorded and analyzed by LabChart v6 (AdInstruments, Dunedin, New Zealand). The muscles were stretched to determine the length which produced maximum twitch contraction in response to field stimulation for 1 msec at supramaximal voltage. For caffeine contracture studies, muscles were exposed for 2 min to Krebs solution containing 10, 15, or 20 mM caffeine. For heat-induced contracture studies, muscles were exposed to Krebs solution warmed at 27, 35, 40, and 42 °C until basal force peaked. For twitch and tetanic contraction measurements, muscles were stimulated at 1 min intervals with 20 trains of 1, 2, 5, 10, 20, 50, 100, and 200 Hz pulses. For Cpd1 treatment, muscles were incubated with Krebs solution containing 3 µM Cpd1 15 min prior to measurements. Absolute contractile force was normalized to the maximum diameter of the muscle.

R2509C mice = experiment: Muscle force in vivo, grip force test (4-grips test), R2509C mice; design: species or system mouse; settings: for grip force (sheet Fig S6c): single mice
Procedure: Muscle force was measured in vivo by grip-force test. […] The force was measured before and 10 and 60 min after i.p. injection of saline or Cpd1 (10 mg/kg). Mice (8- to 12-week old) were gently held by the tails and allowed them to grasp the horizontally positioned metal bar of the Grip Strength Meter (MK308M, Muromachi Kikai, Tokyo, Japan) with their forelimbs and hindlimbs (4-grips test). Each mouse performed four trials for force measurement at every time point. The highest force value applied to the metal bar was recorded and normalized by body weight.

[3] = Pharmacokinetics after i.p. administration in mice; format: in vivo, mouse; settings: 8-times injection of 1 mg/kg at 10 min intervals
[4] = Metabolic stability in human liver microsomes; format: in vitro ADME; settings: 0.5 μM, NADPH
Procedure: Cpd1 (final concentration was 0.5 μM) was incubated with human or mouse hepatic microsomes (XenoTech Ltd, Kansas City, KS) with nicotinamide adenine dinucleotide phosphate (NADPH) for 10 and 60 min at 37 °C. Each reaction was stopped by acetonitrile, and the value of unchanged compound 1 was determined by quantitating using LC–MS/MS, and the metabolic stability was evaluated as a remaining rate (%).

SMILES: CCCCCCCCn1cc(C(=O)O)c(=O)c2cc3c(cc21)OCO3 [Cpd1, 6,7-(methylenedioxy)-1-octyl-4-quinolone-3-carboxylic acid]
- effect on isoflurane-induced increase in [Ca2+]i ([1]; R2509C cells, 0.1 μM): completely prevented
- effect on resting [Ca2+]i (Cal520) ([1]; R2509C cells, 0.1 μM): reduced
- Ca2+ signal (Cal520, F/F0) ([1]; R2509C cells, 0.1 μM Cpd1, halothane 0.0001): 1
- Ca2+ signal (Cal520, F/F0) ([1]; R2509C cells, 0.1 μM Cpd1, halothane 0.001): 1.0324 and 1.0472 and 0.9774 and 0.9848 and 0.9736
- Ca2+ signal (Cal520, F/F0) ([1]; R2509C cells, 0.1 μM Cpd1, halothane 0.003): 1.0085 and 1.0149 and 0.9846 and 0.9811 and 0.9717
- Ca2+ signal (Cal520, F/F0) ([1]; R2509C cells, 0.1 μM Cpd1, halothane 0.01): 1.0131 and 1.0119 and 0.9966 and 0.9808 and 0.9633
- Ca2+ signal (Cal520, F/F0) ([1]; R2509C cells, 0.1 μM Cpd1, halothane 0.03): 0.9989 and 1.0012 and 1.0266 and 1.0111 and 1.0033
- Ca2+ signal (Cal520, F/F0) ([1]; R2509C cells, 0.1 μM Cpd1, halothane 0.1): 1.0006 and 0.9977 and 1.0575 and 1.0571 and 1.0156
- Ca2+ signal (fura-2 ratio) ([1]; R2509C cells, 0.1 μM Cpd1, isoflurane 0): 1.236 and 1.532 and 1.49 and 1.463 and 1.64 and 1.372 and 1.497 and 1.401
- Ca2+ signal (fura-2 ratio) ([1]; R2509C cells, 0.1 μM Cpd1, isoflurane 0.1): 1.237 and 1.533 and 1.482 and 1.467 and 1.643 and 1.374 and 1.485 and 1.496
- Ca2+ signal (fura-2 ratio) ([1]; R2509C cells, 0.1 μM Cpd1, isoflurane 0.2): 1.24 and 1.549 and 1.492 and 1.502 and 1.673 and 1.396 and 1.504 and 1.444
- Ca2+ signal (fura-2 ratio) ([1]; R2509C cells, 0.1 μM Cpd1, isoflurane 0.5): 1.266 and 1.58 and 1.488 and 1.503 and 1.677 and 1.451 and 1.62 and 1.544
- effect on resting [Ca2+]i (fura-2) ([1]; R2509C cells, 0.1 and 0.3 µM): reduced [Ca^2+]i in R2509C cells in a dose-dependent manner
- effect on halothane-induced increases in [Ca2+]i ([1]; R2509C cells, pretreatment 0.1 µM): completely abolished
- Ca2+ signal with Cpd1 relative to None = 1 (sheet Fig S1b) ([1]; R2509C, single experiments): 0.9373 and 0.9655 and 0.9601 and 0.9482 and 0.7826 and 0.8571
- IC50 (RyR1 channel): 12 nM
- twitch tension ([2]; 3 μM Cpd1): 0.08926 and 0.06376 and 0.0706 and 0.1008 and 0.09044
- stress (stress-frequency relationship) ([2]; 3 μM Cpd1, 1 Hz): 0.07934 and 0.05313 and 0.0706 and 0.09238 and 0.1028
- stress (stress-frequency relationship) ([2]; 3 μM Cpd1, 2 Hz): 0.07934 and 0.05313 and 0.0706 and 0.09238 and 0.1028
- stress (stress-frequency relationship) ([2]; 3 μM Cpd1, 10 Hz): 0.08926 and 0.05313 and 0.0706 and 0.09238 and 0.09866
- stress (stress-frequency relationship) ([2]; 3 μM Cpd1, 50 Hz): 0.7934 and 0.7651 and 0.5531 and 0.7307 and 0.4851
- grip force (sheet Fig S6c) (R2509C mice; 10 min after Cpd1): 9.25 and 10 and 6.39 and 8.47 and 6.45 and 7.53
- grip force (sheet Fig S6c) (R2509C mice; 60 min after Cpd1): 10.04 and 12.86 and 9.79 and 9.69 and 9.84 and 10.9
- grip force (sheet Fig S6c) (R2509C mice; Pre (before administration), Cpd1 group): 10.64 and 13.19 and 10.54 and 8.58 and 8.65 and 10.63
- muscle weakness in grip strength test (R2509C mice; R2509C mice, after administration of Cpd1): muscle weakness was also observed in 10 min but recovered within 60 min
- plasma concentration ([3]; female, 10 min): 70 ng/mL and 90 ng/mL
- plasma concentration ([3]; male, 5 min): 610 ng/mL and 360 ng/mL
- remaining rate (residual Cpd1, 0 min = 100%) ([4]; 10 min): 69% and 68% and 65% and 66%
- remaining rate (residual Cpd1, 0 min = 100%) ([4]; 60 min): 25% and 26% and 23%
